Reference: ChEMBL document CHEMBL6109117, “Synthesis of an RBM39 Degrader That Downregulates CEP192 and Induces Disorganized Spindle Structures” (J Med Chem, 2025)
Activity calls are given as the source filed them. The calls are words filed in the database; no cut-off is given here.

Assays:
[1] = system: HCT-116; test: Effect on RNA splicing in human HCT-116 cells assessed as ESPL1 gene exon splicing at 2 uM incubated for 12 hrs by RNA-seq analysis; assay type: functional, cell-based
[2] = Effect on mitosis in human HCT-116 cells assessed as normal mitotic cells at 1 uM incubated for 48 hrs by immunofluorescence based analysis relative to control; assay type: functional
[3] = system: HCT-116; test: Antitumor activity against human HCT-116 cells xenografted in BALB/c nude mouse at 50 mg/kg, po bid treated for 17 days relative to control; assay type: functional; conditions: HCT-116, 408 h, time 17 day, read-out: TGI
[4] = system: HCT-116; test: Induction of apoptosis in human HCT-116 cells assessed as change in caspase-3 level at 0.1 to 5 uM incubated for 48 hrs by Western blot analysis; assay type: functional, cell-based; conditions: dose 0.1-5 µM
[5] = Effect on RNA splicing in human K562 cells assessed as mutually exclusive exons at 2 uM incubated for 12 hrs by RNA-seq analysis relative to control; assay type: functional
[6] = Effect on RNA splicing in human K562 cells assessed as number of alternative 3' splice sites at 2 uM incubated for 12 hrs by RNA-seq analysis; assay type: functional
[7] = system: K562; test: Effect on RNA splicing in human K562 cells assessed as CEP192 gene alternative 3' splicing site at 2 uM incubated for 12 hrs by RNA-seq analysis; assay type: functional, cell-based
[8] = system: MV4-11; test: Induction of spliceosome function impairment in human MV4-11 cells assessed as decrease in PRPF38A transcript at 1 to 10 uM incubated for 12 hrs by qRT-PCR analysis; assay type: functional, cell-based; conditions: dose 1-10 µM
[9] = system: HCT-116; test: Induction of RBM39 degradation in human HCT-116 cells at 1 uM incubated for 3 to 6 hrs by Western blot analysis; assay type: cell-based; conditions: time 3-6 hrs
[10] = system: HCT-116; test: Effect on RNA splicing in human HCT-116 cells assessed as CEP192 gene retention of introns incubated for 12 hrs by PCR analysis; assay type: functional, cell-based; conditions: dose <= 10.0 µM
[11] = system: K562; test: Effect on RNA splicing in human K562 cells assessed as KNL1 gene skipping exon at 2 uM incubated for 12 hrs by RNA-seq analysis; assay type: functional, cell-based
[12] = system: MV4-11; test: Antiproliferative activity against human MV4-11 cells assessed as inhibition of cell growth incubated for 4 days by CCK8 assay; assay type: functional, cell-based; conditions: time 4.0 day
[13] = system: HCT-116; test: Antitumor activity against human HCT-116 cells xenografted in BALB/c nude mouse at 150 mg/kg, po qd treated for 17 days relative to control; assay type: functional; conditions: HCT-116, 408 h, time 17 day, read-out: TGI
[14] = system: MOLM-13; test: Effect on RNA splicing in human MOLM-13 cells assessed as CEP192 gene skipping exons incubated for 12 hrs by PCR analysis; assay type: functional, cell-based; conditions: dose 0.1-10 µM
[15] = system: MV4-11; test: Induction of RBM39 degradation in human MV4-11 cells incubated for 24 hrs by Western blot analysis; assay type: cell-based
[16] = Effect on RNA splicing in human K562 cells assessed as alternative 3' splice sites at 2 uM incubated for 12 hrs by RNA-seq analysis relative to control; assay type: functional
[17] = system: CEM/C1; test: Effect on RNA splicing in human CEM/C1 cells assessed as CEP192 gene skipping exons incubated for 12 hrs by PCR analysis; assay type: functional, cell-based; conditions: dose 0.1-10 µM
[18] = Effect on RNA splicing in human K562 cells assessed as alternative 5' splice sites at 2 uM incubated for 12 hrs by RNA-seq analysis relative to control; assay type: functional
[19] = system: HCT-116; test: Induction of apoptosis in human HCT-116 cells at 0.1 to 5 uM incubated for 48 hrs by Annexin V-FITC/PI staining based flow cytometry; assay type: functional, cell-based; conditions: dose 0.1-5 µM
[20] = system: MV4-11; test: Effect on RNA splicing in human MV4-11 cells assessed as CEP192 gene skipping exons incubated for 12 hrs by PCR analysis; assay type: functional, cell-based; conditions: dose 0.1-10 µM
[21] = system: HCT-116; test: Effect on RNA splicing in human HCT-116 cells assessed as RTTN gene exon splicing at 2 uM incubated for 12 hrs by RNA-seq analysis; assay type: functional, cell-based
[22] = system: HCT-116; test: Induction of RBM39 degradation in human HCT-116 cells at 1 uM incubated for 24 hrs by mass spectrometry-based proteomic analysis; assay type: cell-based
[23] = Competitive inhibition of N-terminal His-tagged RBM39 (146 to 326 residues)/DCAF15 (2 to 600 residues)/full-length DDB1 (1 to 1140 residues)(unknown origin) incubated for 1 hr in presence of (R)-N-(3-(N-(3-Cyano-4-methyl-1H-indol-7-yl)sulfamoyl)phenyl)-2-(2-(((6-(3-(3',6'-dihydroxy-3-oxo-3H-spiro[isobenzofuran-1,9'-xanthen]-5-yl)thioureido)hexyl)amino)methyl)pyrrolidin-1-yl)-2-oxoacetamide by fluorescence polarization assay; parameters: species or system Homo sapiens
[24] = system: HCT-116; test: Induction of cell cycle arrest in human HCT-116 cells assessed as accumulation at G2/M phase at 1 uM by PI staining based flow cytometry; assay type: functional
[25] = system: MOLM-13; test: Antiproliferative activity against human MOLM-13 cells assessed as inhibition of cell growth incubated for 4 days by CCK8 assay; assay type: functional, cell-based; conditions: time 4.0 day
[26] = Effect on RNA splicing in human HCT-116 cells assessed as number of skipping exons at 2 uM incubated for 12 hrs by RNA-seq analysis; assay type: functional
[27] = system: HCT-116; test: Induction of cell cycle arrest in human HCT-116 cells assessed as accumulation at G2/M phase at 5 uM incubated for 48 hrs by PI staining based flow cytometry relative to control; assay type: functional
[28] = Effect on RNA splicing in human HCT-116 cells assessed as number of retention of introns at 2 uM incubated for 12 hrs by RNA-seq analysis; assay type: functional
[29] = system: HCT-116; test: Effect on RNA splicing in human HCT-116 cells assessed as CEP192 gene skipping exons incubated for 12 hrs by PCR analysis; assay type: functional, cell-based; conditions: dose <= 10.0 µM
[30] = system: HCT-116; test: Effect on RNA splicing in human HCT-116 cells assessed as RTTN gene retention of intron at 2 uM incubated for 12 hrs by RNA-seq analysis; assay type: functional, cell-based
[31] = Effect on RNA splicing in human K562 cells assessed as number of skipping exons at 2 uM incubated for 12 hrs by RNA-seq analysis; assay type: functional
[32] = system: RS4;11; test: Induction of RBM39 degradation in human RS4;11 cells incubated for 24 hrs by Western blot analysis; assay type: cell-based
[33] = system: MV4-11; test: Induction of spliceosome function impairment in human MV4-11 cells assessed as decrease in ZNF207 transcript at 1 to 10 uM incubated for 12 hrs by qRT-PCR analysis; assay type: functional, cell-based; conditions: dose 1-10 µM
[34] = system: HCT-116; test: Induction of RBM39 degradation in human HCT-116 cells at 0.05 to 5 uM incubated for 24 hrs in presence of MG132 by Western blot analysis; assay type: cell-based; conditions: dose 0.05-5 µM
[35] = system: HCT-116; test: Effect on RNA splicing in human HCT-116 cells assessed as number of alternative 3' splice sites at 2 uM incubated for 12 hrs by RNA-seq analysis; assay type: functional
[36] = system: HCT-116; test: Induction of spliceosome function impairment in human HCT-116 cells assessed as fold increase in CUL4A RI transcript at 1 to 10 uM incubated for 12 hrs by qRT-PCR analysis relative to control; assay type: functional; conditions: dose 1-10 µM
[37] = system: K562; test: Effect on RNA splicing in human K562 cells assessed as CEP192 gene retention of introns incubated for 12 hrs by PCR analysis; assay type: functional, cell-based; conditions: dose 0.1-10 µM
[38] = system: HCT-116; test: Induction of spliceosome function impairment in human HCT-116 cells assessed as decrease in ZNF207 exon8-exon9 RNA level at 1 to 10 uM incubated for 12 hrs by qRT-PCR analysis; assay type: functional, cell-based; conditions: dose 1-10 µM

Row | IC50 [23] [nM] | Structure (SMILES) | Activity [1] | Activity [2] [%] | Activity [4] | Activity [7] | Activity [8] | Activity [11] | Activity [19] | Activity [21] | Activity [22] | Activity [24] | Activity [26] | Activity [27] [%] | Activity [28] | Activity [30] | Activity [33] | Activity [34] | Activity [35] | also measured
1 | 594 | Cc1ccc(NS(=O)(=O)c2cccc(NC(=O)C(=O)N3CCC[C@@H]3CO)c2)c2[nH]cc(C#N)c12 | Active | 0.8 | inactive | Active | Active | Active | inactive | Active | Active | Time-dependent-effect | 8905 | 60 | 1098 | Active | Active | inactive | 745 | inhibition in vivo at 50 mg/kg [3]: 35%; Activity [5]: 10.3%; Activity [6]: 1232; Activity [9]: Active; Compound Exhibited Its Efficiency Steadily Increasing From 3 To 48 Hrs; Activity [10]: Dose-dependent-effect; Observed Retention Of Introns Between Exons 27 And 28; inhibition [12]: Active; inhibition in vivo at 150 mg/kg [13]: 72%; Activity [14]: Dose-dependent-effect; Observed Skipping Of Exons 42, 28 And 13; Activity [15]: Dose-dependent-effect; Activity [16]: 7.1%; Activity [17]: Dose-dependent-effect; Observed Skipping Of Exons 42, 28 And 13; Activity [18]: 3.6%; Activity [20]: Dose-dependent-effect; Observed Skipping Of Exons 42, 28 And 13; inhibition [25]: Active; Activity [29]: Dose-dependent-effect; Observed Skipping Of Exons 42, 28 And 13; Activity [31]: 12285; Activity [32]: Dose-dependent-effect; fold change (FC) [36]: 3; Activity [37]: Dose-dependent-effect; Observed Retention Of Introns Between Exons 27 And 28
2 | 417 | NS(=O)(=O)c1ccc(S(=O)(=O)Nc2cccc3c(Cl)c[nH]c23)cc1 [INDISULAM] | Active | 1.4 | inactive | Active | Active | Active | inactive | Active | Active | Time-dependent-effect | 10485 | 55 | 1378 | Active | Active | inactive | 836 | Activity [38]: Active
